Key:
6 Hz 44 mA animal model = test: 6 Hz 44 mA psychomotor seizure test (ETSP anticonvulsant screening); assay type: in vivo, Carworth Farms no. 1 (CF1) mice; conditions: 300 mg/kg, ip, mice
Method: (§1) Initial evaluation for anticonvulsant activity was done by the Epilepsy Therapy Screening Program Branch, National Institute of Neurological Disorders and Stroke. Phase I evaluation included three tests: maximal electroshock (MES), 6 Hz, and rotarod test for neurological toxicity (Tox). The studies were done in normal adult male Carworth Farms no. 1 (CF1) mice using four or more mice pre-test. Intraperitoneal (ip) administration of the test compounds was carried out as a suspension in 0.5% methylcellulose. The compounds were tested at doses ranging from 30 mg/kg to 300 mg/kg. The animals were pretreated with the test compound at time intervals of 0.5 h and 2 h. The rotarod neurologic toxicity test was completed at each dose and time point. The MES test is a high frequency (60 Hz), short duration ([…]) stimulus delivered through corneal electrodes in normal rodents while the 6 Hz 44 mA psychomotor test is a long duration (3 s) and low frequency (6 Hz). Compounds active in the MES Identification Phase tests are screened for their ability to block seizures induced in the 6 Hz psychomotor focal seizures animal model of epilepsy. The compounds effective in the 6-Hz model during the Identification phase become candidates for advanced screening in the Differentiation Phase.

[1] = system: maximal electroshock (MES) model; test: maximal electroshock (MES) test (ETSP anticonvulsant screening); assay type: in vivo, Carworth Farms no. 1 (CF1) mice; conditions: ip, mice; for animals protected in MES model: 300 mg/kg
Method: as §1

O=C1C=C(NC(=O)c2ccc(C(F)(F)F)cc2)CC(C(F)(F)F)C1 (stereo not shown) [Compound 7, N-(3-oxo-5-(trifluoromethyl)cyclohex-1-en-1-yl)-4 (trifluoro-methyl)-benzamide]
25%: protection in 6 Hz 44 mA model (6 Hz 44 mA animal model) | protection in MES model ([1]; 100 mg/kg, after 2 h) | animals protected in MES model ([1]; 0.5 h) | animals protected in MES model ([1]; 2 h)

From patent publication US20250296910A1, “BENZAMIDE ENAMINONE DERIVATIVES AND METHODS OF USE THEREOF” (University of Maryland, Eastern Shore, priority 2022, published 2025)
